Activity calls are given as the source filed them. The rule behind the calls is not given here.
Experiments:
[1] = target: T1, Oxysterols receptor LXR-beta (Homo sapiens, UniProt P55055); experiment: LXR agonists, Gal4 luciferase reporter, dose response, counter-screen for ssDAF-12 agonist project, cell-based, luminescence, HEK293, S. stercoralis campaign (AID 720737); assay type: functional; conditions: read-out: IC50 (the source's name)
T1 sequence (P55055 whole entry): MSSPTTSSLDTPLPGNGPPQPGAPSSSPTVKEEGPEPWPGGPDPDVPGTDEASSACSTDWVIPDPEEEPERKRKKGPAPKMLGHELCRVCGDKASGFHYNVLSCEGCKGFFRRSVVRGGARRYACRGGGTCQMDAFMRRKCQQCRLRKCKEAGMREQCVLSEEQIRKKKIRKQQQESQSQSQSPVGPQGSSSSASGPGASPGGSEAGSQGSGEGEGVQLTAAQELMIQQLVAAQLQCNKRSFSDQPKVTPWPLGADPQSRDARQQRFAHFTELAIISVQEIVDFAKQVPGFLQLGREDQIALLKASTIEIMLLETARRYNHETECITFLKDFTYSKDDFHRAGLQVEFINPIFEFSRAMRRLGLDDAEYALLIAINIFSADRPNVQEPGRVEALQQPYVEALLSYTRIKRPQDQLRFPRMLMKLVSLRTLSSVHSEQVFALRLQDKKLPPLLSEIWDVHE

[2] = target: T1, Oxysterols receptor LXR-beta; assay type: functional, cell-based

For `C/C(=N\c1cccc(C)c1)c1sc2ccccc2c1O`, the EC50 [1] was > 67.6 µM (inactive) and the EC50 [2] was > 67.6 µM (inactive).

Reference: ChEMBL document CHEMBL1201862, “PubChem BioAssay data set” (2004)
